Reference: paper PMC6452685, “Lysyl-tRNA synthetase as a drug target in malaria and cryptosporidiosis” (Proceedings of the National Academy of Sciences of the …, 2019)

Tests used:
Type in all cases: cell-based
[1] = test system: Plasmodium falciparum 3D7; test: P. falciparum 3D7 growth inhibition (SYBR green I); conditions: for EC50: Plasmodium falciparum, P. falciparum 3D7 bloodstream, read-out: Pf(3D7) EC50
Text: 3.2 Cytotoxicity Studies (Dundee)
In vi t ro cy totox i ci ty s tudies can be ca rri ed out us i ng Hep G 2 (Human C aucas i an hepatocy te ca rci noma, ECACC cat. no. 850 114 30) us ed as i ndi cators f or g eneral mammal i an cel l tox i ci ty . […]
3.3 In vitro Cell Assay D ata Analysis (Du ndee) […]
as 0%. Qual i ty control c ri teri a for passi ng pl ates were as fol l ow s : Z’ > 0.
< 15 . T he f ormula used to calculate Z’ is 1- 3´ (St D e v _ hi gh + St D e v_ low) . […]
Al l EC50 Curve fitti ng was undertaken usi ng XLFi t versi on 4.2 usi ng Model 205 wi th the foll owi ng 4 paramet ri c equat i on: A + (?-A) ,where A=% i nhi bi ti on at bo ttom, B=% i nhi bi ti on at top, C= EC , […]
D= slope, x= inhibitor concentration a nd y= % inhibition. […]
was fixed to 100 only when at least 50% of inhibition was reached.

[2] = test system: C. parvum; test: In vitro Cryptosporidium time-kill curve assay in HCT-8 cells; conditions: C. parvum in HCT-8 cell culture
Method: SUPPLEMENTARY INFORMATION ileocecal adenocarcinoma (HCT-8) cel l s (ATC C ) w ere cul t ured i n RP M I 1640 medi um (I nv i t rog en) supplemented with 10% fetal bovine serum (Sigma-Al dri ch), 120 U/ml peni ci l l i n, and 12 0 µg/ml streptomycin (ATCC), and used between passages 9 and 39 for all experiments. Cryptospori di um parvum Iowa isolate oocysts were purchased from Bunch Grass Farm (Deary, ID). Oocys ts were triggered to excyst by treating with 10 mM hydrochloric acid (10 min, 37°C) and the n 2 mM sodium taurocholate (Sigma-Al d r i c h ) i n P B S ( 1 0 m i n , […] ) . They w ere t hen added t o > 95% co nfl uent HC T-8 cel l monol ay ers i n 384-well plates (~5,500 oocysts/well). Ex pe ri me nt al compounds w e re adde d 3 h after i nfecti on, and assay pl ates were incubated for 48 h post-infection at 37°C unde r 5% CO2. Assay pl at es w ere t hen w as hed t h ree t i mes w i t h PBS cont ai ni ng 11 1 mM D-galactose, fixed with 4% parafo rmal dehy de i n PBS, t reat ed f or 10 mi n at 3 7°C w i t h 0. 25% T ri t on X-100, an d s t ai ned w i t h 1. […] […] […] Curves were pl ot t ed and t he hal f-maxi mal effecti ve (EC50) and 90% effecti v e concentrati on (EC90) were cal cul ated us i ng G raphPad Pri s m s oft w are, v ersi on 6. 01. […]
Cryptospori di um parvum elimination during cul ture in HCT-8 cells was measured as recently des cri bed (10). […]

[3] = test system: P. berghei liver schizonts; test: P. berghei liver schizonts (luciferase); conditions: Plasmodium berghei
Method: Thi s i s bas ed on met hods prev i ous l y report ed (12 ). In bri ef, HepG 2-A1 6-CD81EGFP cel l s were cul tured at 3 7 °C i n 5% C O2 in DMEM me dia. For both P. berghei-Luc and HepG2 cytotoxi ci ty assays, 3x 10**3 of the HepG2-A16-CD81EGFP20 cells in 5 µl of assay medi um (DMEM wi thout Phenol Red (Li fe Techn ol ogi es, CA), 5% FBS, and 5x Pen Stre p Gl utami ne (Li fe Techn ol ogi es, CA)) at concentrati o n 6x 10**5 cel l s /ml were s eeded i n white s oli d bottom 153 6-well pl at es (cus t om G NF mol d ref# 7891 73-F, Grei ner Bi o-One), 2 0-26 h prior to sporozoites infection. […]
pri or t o i nfect i on 5 0 nl of comp ounds i n 1:3 s eri al di l ut i ons in DMSO (0. 5% fi nal DMSO concentrati on per w el l ) w ere t rans ferred w i t h an Acous ti c Trans fer Sy s t em (ATS) (Bi os ero) t o the cells. Atovaquone (5µ M) and pu romy ci n (1 0 µM) at a single concentration were used as pos i t i v e cont rol s for the Pbluc and He pG 2tox , res pecti v el y . 0. 5% DMSO was us ed as neg ati v e control for both as s ay s . […]
[…] Immediately after addition of the luminescence reagent, the luminescence was measured by the Env i s i on M ul t il abel Reader (Perk i nEl mer). […]
Thi s is a modification of the previously reported method (13). […]

[4] = test system: C. hominis (TU502); test: Activity against Cryptosporidium hominis
Method: Thi s i s bas ed on methods previ ousl y reported (14). Mature P. falciparum stage V gametocytes (NF54)
were incubated with test compound for 24 h at 3 7°C i n 384-well plates containing complete culture
medi um (RPMI 1640, 25 mM HEPES, 2 g/l D-glucose, 2 g/l sodium bicarbonate, 50 mg/l
Gametogenesis was triggered by dis pens i ng 10 µl ookinete medium (RPMI 1640, 25 mM HEPES, 2 g/l
D-glucose, 2 g/l sodium bicarbonate, 50 mg/l hy pox ant hi ne, 100 µM xanthurenic acid) also
contai ni ng 2. 7 µg/ml anti-Pfs25-Cy3 into each well and cooling the plate on a metal block at 4 °C fo r
4 mi n. Fi fteen s l ater male gametogenesis was recorded by b ri ghtfi el d i magi ng usi ng ti m e s 6 object i v e
and then the pl ate stored at 2 6 °C for a fu rther 24 h to allow female gametes to develop. Female
gamete formation was assessed by fluorescence m icroscopy using x6 objective to identify anti-Pfs25-
gentian violet negative and positive controls.
3.1 3 Act iv it y a gains t Cry pt os pori diu m h omi nis (CALIBR)
Thi s i s bas ed on methods previ ousl y reported (10).

Structure (SMILES)	EC50 [1] [nM]	time-kill curve, parasite elimination [2]	cellular selectivity between P. falciparum parasites and human HepG2 cells [1] [fold]	EC50 [3] [nM]	EC50 [4] [nM]
O=C(NCC1CCCCC1)c1cc(=O)c2ccccc2o1 [Compound 2]	190				
C[C@H]1CCC[C@H](C[C@H]2Cc3cc(O)cc(O)c3C(=O)O2)O1 [Compound 1, cladosporin, reference compound]	73	eliminated parasites at an exponential rate			
O=C(NCC1CCCCC1)c1cc(=O)c2cc(F)ccc2o1 [Compound 3]	290				
O=C(NCC1(O)CCCCC1)c1cc(=O)c2cc(F)ccc2o1 [Compound 4]	180				
O=C(NCC1(O)CCC(F)(F)CC1)c1cc(=O)c2cc(F)ccc2o1 [Compound 5]	270	eliminated parasites at an exponential rate	180	900	6000
